How the values were obtained:
[1] = test system: HeLa; assay: Human cell line activity, HeLa; format: cell-based; conditions: read-out: IC50 (µM) HeLa
[2] = test system: P. knowlesi YH1 human erythrocyte infecting parasites; assay: P. knowlesi in vitro IC50 assay (flow cytometry), human erythrocytes; format: cell-based; conditions: Plasmodium knowlesi
Experimental: Fig. 5. In vivo and broad-spectrum antimalarial efficacy of MED6-189. (A) The in vivo efficacy of MED6-189 was evaluated in a humanized mouse model infected with P. falciparum (blue) compared with untreated controls (black). […] The graphs illustrate the logarithmic growth of parasites (y axis) in response to varying drug concentrations (x axis). Error bars represent standard deviations from two independent experiments conducted in triplicate. The regression line is derived from a nonlinear regression analysis (variable slope with four parameters, least squares fit). (C) Proposed mode of action of MED6-189 in P. falciparum–infected erythrocytes. […]
(§1) Detailed information on materials and methods is available in the supplementary materials. […] P. knowlesi assays were quantitatively measured by flow cytometry using SYBR Green I and Mitrotracker Deep Red, as previously described ([84], [85]), on a Beckman Coulter CytoFLEX. […]
(§2) P. falciparum in vitro SYBR green fluorescence-based assays The anti-malarial activity of individual analogues were evaluated in-vitro against P. falciparum 3D7 (MRA-102, drug […]
(§3) green-I based fluorescence assay. Parasite growth rate and stages of development were determined via microscopy through Giemsa-stained smears of the cultures. […]

[3] = test system: P. falciparum HB3 (MRA-155); assay: SYBR Green I growth inhibition assay, HB3; format: cell-based, Plasmodium falciparum; conditions: early-ring stage, 72 h exposure
Experimental: Fig. 1. […] (B) SYBR Green–based dose response assays were conducted on early-ring stage parasites (6 hours after invasion). […] 3D7 WT (blue), NF54 (green), drug-resistant strains Dd2 (red), HB3 (black), W2 (gray), and D10-ACP-GFP (purple) lines (Sigmoidal, 4PL, X is concentration, n ≥ 3, nonlinear regression, CI: 95%). (C) Schematic diagram of the development of P. falciparum after two consecutive erythrocytic cycles. The time points at which MED6-189 was introduced are depicted in green. HPS, hours post synchronization. […] The images depict various developmental stages of the parasite’s intraerythrocytic life cycle. Bordered images represent time points when drug was first introduced (n = 3 biological replicates, P < 0.05).
as §1, §2, §3

[4] = test system: THP1; assay: Human cell line activity, THP1; format: cell-based; conditions: THP-1, read-out: IC50 (µM) THP1
[5] = test system: HEK293; assay: Human cell line activity, HEK293; format: cell-based; conditions: HEK293, read-out: IC50 (µM) HEK293

**Q.** With [C-]#[N+][C@]1(C)CC[C@H]2[C@@H]([C@@H](C(C)C)CC[C@]2(C)[N+]#[C-])[C@H]1O [MED6-189] as the molecule, how does the IC50 [1] read?
**A.** Its IC50 is 9.6 µM.

**Q.** And the IC50 [2]?
**A.** The IC50 was 0.309 ± 0.042 µM.

**Q.** And the IC50 ([3]; Plasmodium falciparum, HB3, 72 h)?
**A.** Its IC50 is 0.023 ± 0.002 µM.

**Q.** What about the IC50 [3] of the same molecule?
**A.** The IC50 was 0.0228 µM.

**Q.** And the IC50 [4]?
**A.** Its IC50 is 12 µM.

**Q.** What about the IC50 [5] of the same molecule?
**A.** Its IC50 is 28 µM.
